Publication PMC3206020, “Analogous Mechanisms of Resistance to Benzothiazinones and Dinitrobenzamides in Mycobacterium smegmatis” (PLoS ONE, 2011)

Assays:
NfnB = target: T1, NfnB (Mycolicibacterium smegmatis, UniProt A0R6D0); assay: LC/MS/MS detection of conversion of DNB1 to its hydroxylamine by purified NfnB; type: biochemical
T1 construct: purified NfnB protein

DprE1 (MSMEG_6382) = target: T2, DprE1 (MSMEG_6382) (Mycolicibacterium smegmatis, UniProt A0R607); assay: steady-state fluorescence titration (enzyme-bound FAD fluorescence); type: binding
T2 construct: recombinant DprE1 expressed as N-terminal six-histidine and thioredoxin fusion (pET-32b), digested with PreScission Protease

Structure (SMILES)	LC/MS/MS detection of conversion of DNB1 to its hydroxylamine by purified NfnB (NfnB)	Kd (DprE1 (MSMEG_6382))
COc1ccc(OCCNC(=O)c2cc([N+](=O)[O-])cc([N+](=O)[O-])c2)cc1 [DNB1, N-(2-(4-methoxyphenoxy)ethyl)-3,5-dinitrobenzamide]	NfnB was able to convert DNB1 into the corresponding hydroxyl amine-derivative in the presence of NADPH	7.3 ± 0.8 µM
O=C(NCCOCc1cccc(Cl)c1)c1cc([N+](=O)[O-])cc([N+](=O)[O-])c1 [DNB3, N-(2-(3-chlorobenzyloxy)ethyl)-3,5-dinitrobenzamide]		1.8 ± 0.1 µM
